Measured values reported in PubChem BioAssay (NCI).
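Method: 48-hour compound exposure of cells in 96-well plates, five concentrations, linear interpolation of endpoints. Here, GI50 denotes the concentration required for 50% inhibition of growth. The concentration for full growth arrest is given as TGI.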

What was measured:
Experiment in all cases: NCI anticancer screen, dose series, 48 h; in the data active = GI50 below about 0.43 µM; inactive = the rest
[1] = system: SR leukemia
[2] = system: HCC-2998 colon
[3] = system: SK-MEL-2 melanoma
[4] = system: EKVX NSCLC
[5] = system: ACHN renal
[6] = system: HT29 colon
[7] = system: HOP-92 NSCLC
[8] = system: RPMI-8226 leukemia
[9] = system: HOP-62 NSCLC
[10] = system: OVCAR-4 ovarian

CN=C1CC2c3cc(OC)c(OC)cc3CCN2C2=C1C(=O)CC(C)(C)C2 (centres undefined)
> 100 µM: TGI [1] | TGI [2] | TGI [3] | TGI [4] | TGI [5] | TGI [6] | TGI [7]

CCCc1nc(NC#N)nc(C(=O)Nc2ccccc2)c1CC
> 100 µM: TGI [2] | TGI [8] | TGI [3] | TGI [4] | TGI [5] | TGI [6] | TGI [9] | TGI [7]

CC12CP(=O)(c3ccccc3)CC1C2(Cl)Cl (centres undefined)
> 100 µM: TGI [10] | TGI [2] | TGI [8] | TGI [4] | TGI [6] | TGI [9]

N#Cc1c2ccccc2cn1-c1ccc(F)cc1
61.2 µM: TGI [8]
68.5 µM: TGI [7]
> 100 µM: TGI [10] | TGI [2] | TGI [5] | TGI [6] | TGI [9]

Cc1cc(N(CCC#N)CCC#N)ccc1N=Nc1ccc(C(=O)O)cc1
> 100 µM: TGI [10] | TGI [2] | TGI [8] | TGI [3] | TGI [4] | TGI [5] | TGI [6] | TGI [9]

CN(C)C(n1cc2c(c1)-c1ccc(Cl)cc1C(c1ccccc1F)=NC2)n1cc2c(c1)-c1ccc(Cl)cc1C(c1ccccc1F)=NC2
> 100 µM: TGI [1] | TGI [10] | TGI [2] | TGI [8] | TGI [3] | TGI [4] | TGI [5] | TGI [6] | TGI [9]

COc1cc2c3c(n(C)c(=O)c2cc1OC)-c1cc2c(cc1/C3=C\CN)OCO2
active: GI50 [2] 0.0628 µM | GI50 [8] 0.307 µM | GI50 [5] 0.037 µM | GI50 [6] 0.192 µM | GI50 [9] 0.189 µM
> 77.1 µM: TGI [7]
24.8 µM: TGI [6]
4.9 µM: TGI [8]
0.625 µM: TGI [5]
17 µM: TGI [9]
inactive: GI50 [10] 5.55 µM | GI50 [3] 24.1 µM | GI50 [4] 11.6 µM | GI50 [7] 2.09 µM
> 27.2 µM: TGI [10]
0.589 µM: TGI [2]
> 100 µM: TGI [3] | TGI [4]

Cc1ccccc1N1C(=O)C2C=CC(n3[nH]c(=O)n(Cc4ccccc4)c3=O)CC2C1=O (centres undefined)
> 100 µM: TGI [2] | TGI [8] | TGI [3] | TGI [4] | TGI [5] | TGI [6] | TGI [9] | TGI [7]

O=C(CCc1n[nH]c(=S)o1)Nc1ccccc1C(F)(F)F
> 100 µM: TGI [10] | TGI [2] | TGI [4] | TGI [5] | TGI [6] | TGI [9] | TGI [7]
85.1 µM: TGI [8]

C1=CC(N(c2ccccc2)C2C=CCCC2)CCC1 (centres undefined)
> 100 µM: TGI [8] | TGI [4] | TGI [5] | TGI [6] | TGI [7]

O=C1/C(=C/c2cccc(Cl)c2Cl)N=C(c2ccccc2)N1C1CC1
16.5 µM: TGI [9]
14.5 µM: TGI [8]
> 50 µM: TGI [1] | TGI [3] | TGI [5] | TGI [6]
22.2 µM: TGI [4]
inactive: GI50 [1] 21.5 µM | GI50 [8] 3.88 µM | GI50 [3] 18.5 µM | GI50 [4] 9.9 µM | GI50 [5] 16.7 µM | GI50 [6] 18.2 µM | GI50 [9] 8.37 µM

CCOc1ccc(NC(=O)CC#N)cc1
> 100 µM: TGI [1] | TGI [10] | TGI [2] | TGI [3] | TGI [4] | TGI [5] | TGI [6] | TGI [9]

O=C(Nc1ccncc1)C(=O)c1cn(S(=O)(=O)c2ccc(F)cc2)c2ccccc12
inactive: GI50 [10] 23.1 µM | GI50 [2] 8.57 µM | GI50 [8] 2.54 µM | GI50 [3] 4.74 µM | GI50 [4] 3.9 µM | GI50 [5] 5.76 µM | GI50 [6] 1.88 µM | GI50 [9] 3.02 µM
52.9 µM: TGI [3]
> 100 µM: TGI [10] | TGI [2] | TGI [8] | TGI [4] | TGI [5] | TGI [6] | TGI [9]

O=C(c1ccccc1)c1cc2ccccc2o1
> 100 µM: TGI [10] | TGI [2] | TGI [8] | TGI [3] | TGI [4] | TGI [5] | TGI [6] | TGI [9] | TGI [7]
inactive: GI50 [10] > 100 µM | GI50 [2] > 100 µM | GI50 [8] 91.8 µM | GI50 [3] > 100 µM | GI50 [4] 32.6 µM | GI50 [5] > 100 µM | GI50 [6] 76.1 µM | GI50 [9] > 100 µM | GI50 [7] 26.7 µM

CCN1CCC(O)(c2ccc(OC)cc2)C(C(=O)c2ccc(OC)cc2)C1 (centres undefined)
30.1 µM: TGI [5]
38.9 µM: TGI [8]
98 µM: TGI [4]
41.2 µM: TGI [2]
> 100 µM: TGI [9]
32.4 µM: TGI [10]
67.1 µM: TGI [1]
48.1 µM: TGI [6]
38.1 µM: TGI [3]

CN(C)CC[PH+](c1ccccc1)c1ccccc1.CN(C)CC[PH+](c1ccccc1)c1ccccc1.[Cl-].[Pd+2]
inactive: GI50 [10] > 100 µM | GI50 [2] > 100 µM | GI50 [8] 99.8 µM | GI50 [4] > 100 µM | GI50 [5] > 100 µM | GI50 [6] > 100 µM | GI50 [7] > 100 µM
> 100 µM: TGI [10] | TGI [2] | TGI [8] | TGI [4] | TGI [5] | TGI [6] | TGI [7]

O=C1Nc2ccccc2/C1=N\[O-].O=C1Nc2ccccc2/C1=N\[O-].[Cu+2]
inactive: GI50 [10] > 100 µM | GI50 [2] > 100 µM | GI50 [8] > 100 µM | GI50 [3] > 100 µM | GI50 [4] > 100 µM | GI50 [5] > 100 µM | GI50 [6] > 100 µM | GI50 [9] > 100 µM
> 100 µM: TGI [10] | TGI [2] | TGI [8] | TGI [3] | TGI [4] | TGI [5] | TGI [6] | TGI [9]

NC(=O)C12CC3CC(CC(F)(C3)C1)C2
> 100 µM: TGI [2] | TGI [8] | TGI [3] | TGI [4] | TGI [5] | TGI [6] | TGI [9] | TGI [7]

Cc1ccc(/C=C/C(=O)c2sc(-c3nc(C)c(C(=O)/C=C/c4ccc(C)cc4)s3)nc2C)cc1
> 100 µM: TGI [2] | TGI [8] | TGI [3] | TGI [4] | TGI [5] | TGI [6] | TGI [9] | TGI [7]

COc1ccc(C(=O)/C=C/c2cc(-c3cc(OC)c(OC)c(OC)c3)n[nH]2)cc1OC
1.11 µM: TGI [8]
3.05 µM: TGI [6]
> 100 µM: TGI [1]
2.77 µM: TGI [9]
3.51 µM: TGI [3]
active: GI50 [1] 0.278 µM | GI50 [8] 0.241 µM
3.09 µM: TGI [5]
inactive: GI50 [10] 2.69 µM | GI50 [2] 2.13 µM | GI50 [3] 1.85 µM | GI50 [5] 1.66 µM | GI50 [6] 1.62 µM | GI50 [9] 1.44 µM
3.78 µM: TGI [2]
16.6 µM: TGI [10]

COc1cccc(C2=NC(C(C)C)CO2)c1 (centres undefined)
> 100 µM: TGI [10] | TGI [2] | TGI [8] | TGI [3] | TGI [4] | TGI [5] | TGI [6] | TGI [9]
